Source: PubChem BioAssay AID2060512 (Molecular Pharmacology Branch, DTP, NCI, 2025)
Each block holds one compound with its values, some of them ahead of it.

Tested on: 186277-243-T-J2-PDC complex spheroid viability
Assay: Anticancer human tumor 186277-243-T-J2-PDC patient-derived colon adenocarcinoma cell line growth inhibition [GQUAD]
Details: for IC50: curve of first compound; for viability, T/C: stronger effect = lower value
Procedure, shortened: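 Multi-cell-type spheroids of tumor cells with HUVEC and mesenchymal stem cells, treated with drug combinations. Concentrations descend in half-log steps from near clinical Cmax, or from 10 microM where Cmax is unknown; viability read-out.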

[1] = second compound 0.0316 µM, first compound 0.0316 µM
[2] = second compound 0.0316 µM, first compound 0.1 µM
[3] = second compound 0.0316 µM, first compound 0.316 µM
[4] = second compound 0.0316 µM, first compound 1 µM
[5] = second compound 0.0316 µM, first compound 3.16 µM
[6] = second compound 0.0316 µM, first compound 10 µM
[7] = second compound 0.1 µM, first compound 0.0316 µM
[8] = second compound 0.1 µM, first compound 0.1 µM
[9] = second compound 0.1 µM, first compound 0.316 µM
[10] = second compound 0.1 µM, first compound 1 µM
[11] = second compound 0.1 µM, first compound 3.16 µM
[12] = second compound 0.1 µM, first compound 10 µM
[13] = second compound 0.316 µM, first compound 0.0316 µM
[14] = second compound 0.316 µM, first compound 0.1 µM
[15] = second compound 0.316 µM, first compound 0.316 µM
[16] = second compound 0.316 µM, first compound 1 µM
[17] = second compound 0.316 µM, first compound 3.16 µM
[18] = second compound 0.316 µM, first compound 10 µM
[19] = second compound 1 µM, first compound 0.0316 µM
[20] = second compound 1 µM, first compound 0.1 µM
[21] = second compound 1 µM, first compound 0.316 µM
[22] = second compound 1 µM, first compound 1 µM
[23] = second compound 1 µM, first compound 3.16 µM
[24] = second compound 1 µM, first compound 10 µM
[25] = second compound 3.16 µM, first compound 0.0316 µM
[26] = second compound 3.16 µM, first compound 0.1 µM
[27] = second compound 3.16 µM, first compound 0.316 µM
[28] = second compound 3.16 µM, first compound 1 µM
[29] = second compound 3.16 µM, first compound 3.16 µM
[30] = second compound 3.16 µM, first compound 10 µM
[31] = second compound 10 µM, first compound 0.0316 µM
[32] = second compound 10 µM, first compound 0.1 µM
[33] = second compound 10 µM, first compound 0.316 µM
[34] = second compound 10 µM, first compound 1 µM
[35] = second compound 10 µM, first compound 3.16 µM
[36] = second compound 10 µM, first compound 10 µM
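Also: spheroids exposed to drugs for 7 days.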
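For viability, T/C in this document: 100% = DMSO vehicle control viability.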

SMILES: CCCS(=O)(=O)Nc1ccc(F)c(C(=O)c2c[nH]c3ncc(-c4ccc(Cl)cc4)cc23)c1F + CN(C)c1ccc(Nc2c3ccc(NC(=O)CCN4CCCC4)cc3nc3cc(NC(=O)CCN4CCCC4)ccc23)cc1
IC50 (second compound 0.0316 µM): 5890 nM
IC50 (second compound 0.1 µM): 6440 nM
IC50 (second compound 0.316 µM): 6240 nM
IC50 (second compound 1 µM): 6270 nM
IC50 (second compound 3.16 µM): 6280 nM
IC50 (second compound 10 µM): 5820 nM
viability, T/C [1]: 97.2%
viability, T/C [2]: 101%
viability, T/C [3]: 90.2%
viability, T/C [4]: 78.8%
viability, T/C [5]: 77.9%
viability, T/C [6]: 30.3%
viability, T/C [7]: 95.2%
viability, T/C [8]: 81.4%
viability, T/C [9]: 83.6%
viability, T/C [10]: 84.6%
viability, T/C [11]: 95.8%
viability, T/C [12]: 26.2%
viability, T/C [13]: 89.1%
viability, T/C [14]: 102%
viability, T/C [15]: 86.3%
viability, T/C [16]: 87%
viability, T/C [17]: 82.7%
viability, T/C [18]: 27.7%
viability, T/C [19]: 90.3%
viability, T/C [20]: 93.1%
viability, T/C [21]: 84.4%
viability, T/C [22]: 98.9%
viability, T/C [23]: 83%
viability, T/C [24]: 26.7%
viability, T/C [25]: 92.2%
viability, T/C [26]: 105%
viability, T/C [27]: 86.5%
viability, T/C [28]: 90.4%
viability, T/C [29]: 82.5%
viability, T/C [30]: 28.4%
viability, T/C [31]: 96.9%
viability, T/C [32]: 91.1%
viability, T/C [33]: 97.9%
viability, T/C [34]: 87.7%
viability, T/C [35]: 82.3%
viability, T/C [36]: 22%

SMILES: CC1COCCN1c1cc(C2(S(C)(=N)=O)CC2)nc(-c2ccnc3[nH]ccc23)n1 (stereo unspecified) + CN(C)c1ccc(Nc2c3ccc(NC(=O)CCN4CCCC4)cc3nc3cc(NC(=O)CCN4CCCC4)ccc23)cc1
IC50 (second compound 0.0316 µM): 803 nM
IC50 (second compound 0.1 µM): 749 nM
IC50 (second compound 0.316 µM): 1350 nM
IC50 (second compound 1 µM): 972 nM
IC50 (second compound 3.16 µM): 986 nM
IC50 (second compound 10 µM): 840 nM
viability, T/C [1]: 95.5%
viability, T/C [2]: 100%
viability, T/C [3]: 117%
viability, T/C [4]: 37.2%
viability, T/C [5]: 8.85%
viability, T/C [6]: 6.06%
viability, T/C [7]: 105%
viability, T/C [8]: 102%
viability, T/C [9]: 89.4%
viability, T/C [10]: 37%
viability, T/C [11]: 7.6%
viability, T/C [12]: 5.85%
viability, T/C [13]: 85.2%
viability, T/C [14]: 99.5%
viability, T/C [15]: 92.7%
viability, T/C [16]: 65.2%
viability, T/C [17]: 7.48%
viability, T/C [18]: 5.05%
viability, T/C [19]: 91%
viability, T/C [20]: 89.8%
viability, T/C [21]: 96.2%
viability, T/C [22]: 48.9%
viability, T/C [23]: 8.32%
viability, T/C [24]: 5.51%
viability, T/C [25]: 91%
viability, T/C [26]: 103%
viability, T/C [27]: 98.8%
viability, T/C [28]: 49.4%
viability, T/C [29]: 7.66%
viability, T/C [30]: 5.17%
viability, T/C [31]: 85.3%
viability, T/C [32]: 94%
viability, T/C [33]: 110%
viability, T/C [34]: 41.7%
viability, T/C [35]: 9.87%
viability, T/C [36]: 5.6%

IC50 (second compound 0.0316 µM): 2430 nM
IC50 (second compound 0.1 µM): 1670 nM
IC50 (second compound 0.316 µM): 1190 nM
IC50 (second compound 1 µM): < 31.6 nM
IC50 (second compound 3.16 µM): < 31.6 nM
IC50 (second compound 10 µM): < 31.6 nM
SMILES: CC(C)(O)C1CCC(Nc2ccc3ncc(-c4cccc(C(F)(F)F)c4)n3n2)CC1 (stereo unspecified) + Cc1cnc(CNC(=O)c2c(=O)c3ccc(N4CCCN(C)CC4)nc3n3c2sc2ccccc23)cn1
viability, T/C [1]: 88.7%
viability, T/C [2]: 85.8%
viability, T/C [3]: 94.4%
viability, T/C [4]: 75.5%
viability, T/C [5]: 43%
viability, T/C [6]: 37.2%
viability, T/C [7]: 81.3%
viability, T/C [8]: 78.1%
viability, T/C [9]: 77%
viability, T/C [10]: 59.6%
viability, T/C [11]: 37.9%
viability, T/C [12]: 34.3%
viability, T/C [13]: 55.5%
viability, T/C [14]: 49.5%
viability, T/C [15]: 66.8%
viability, T/C [16]: 54.2%
viability, T/C [17]: 25.2%
viability, T/C [18]: 20.9%
viability, T/C [19]: 48.5%
viability, T/C [20]: 48.2%
viability, T/C [21]: 46.3%
viability, T/C [22]: 43.2%
viability, T/C [23]: 24.2%
viability, T/C [24]: 22.1%
viability, T/C [25]: 34.5%
viability, T/C [26]: 42.2%
viability, T/C [27]: 38.7%
viability, T/C [28]: 35.3%
viability, T/C [29]: 3.82%
viability, T/C [30]: 0.12%
viability, T/C [31]: 37.5%
viability, T/C [32]: 43.4%
viability, T/C [33]: 37.1%
viability, T/C [34]: 39.7%
viability, T/C [35]: 0.2%
viability, T/C [36]: 0.2%
